According to PMC9851200, “Multiparameter phenotypic screening for endogenous TFEB and TFE3 translocation identifies novel chemical series modulating lysosome function” (Autophagy, 2022):

Experiments:
Format in all cases: binding
[1] = target: T1, kinases (KINOMEscan panel) (Homo sapiens, UniProt O00141); conditions: kinase SGK1; NEW KINOMEscan
T1 sequence (O00141 1-431): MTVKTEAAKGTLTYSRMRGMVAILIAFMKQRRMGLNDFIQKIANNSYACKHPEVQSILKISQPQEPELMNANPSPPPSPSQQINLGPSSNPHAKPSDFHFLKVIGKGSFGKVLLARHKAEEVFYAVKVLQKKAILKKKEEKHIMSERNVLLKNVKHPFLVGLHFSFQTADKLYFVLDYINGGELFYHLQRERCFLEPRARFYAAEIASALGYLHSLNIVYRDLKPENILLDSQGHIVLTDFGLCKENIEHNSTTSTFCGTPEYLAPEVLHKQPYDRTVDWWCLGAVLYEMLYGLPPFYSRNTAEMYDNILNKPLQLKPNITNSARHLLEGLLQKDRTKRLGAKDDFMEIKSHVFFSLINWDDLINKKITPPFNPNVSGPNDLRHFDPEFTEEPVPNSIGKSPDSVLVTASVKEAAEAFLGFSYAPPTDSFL

[2] = target: kinases (KINOMEscan panel) (Homo sapiens, UniProt P06241); conditions: kinase FYN; NEW KINOMEscan
Chain of kinases (KINOMEscan panel) (Homo sapiens, UniProt P06241) (P06241 whole entry): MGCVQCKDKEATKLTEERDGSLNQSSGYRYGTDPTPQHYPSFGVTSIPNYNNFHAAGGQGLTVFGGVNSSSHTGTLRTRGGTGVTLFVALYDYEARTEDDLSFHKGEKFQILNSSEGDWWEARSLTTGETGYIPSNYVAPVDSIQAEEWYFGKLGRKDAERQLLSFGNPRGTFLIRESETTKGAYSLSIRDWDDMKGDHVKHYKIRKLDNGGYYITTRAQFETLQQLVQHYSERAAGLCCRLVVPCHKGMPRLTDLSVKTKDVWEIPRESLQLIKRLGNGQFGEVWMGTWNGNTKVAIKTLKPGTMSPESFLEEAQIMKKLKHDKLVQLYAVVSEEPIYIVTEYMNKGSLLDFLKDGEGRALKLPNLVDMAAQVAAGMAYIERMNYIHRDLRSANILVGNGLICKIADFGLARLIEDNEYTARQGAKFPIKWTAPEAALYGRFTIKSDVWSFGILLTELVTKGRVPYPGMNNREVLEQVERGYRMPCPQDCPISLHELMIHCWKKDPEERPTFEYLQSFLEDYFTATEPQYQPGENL

[3] = target: kinases (KINOMEscan panel) (Homo sapiens, UniProt P08922); conditions: kinase ROS1; NEW KINOMEscan
[4] = target: kinases (KINOMEscan panel) (Homo sapiens, UniProt P22607, G697C); conditions: FGFR3(G697C); NEW KINOMEscan
[5] = target: kinases (KINOMEscan panel) (Homo sapiens, UniProt P31751); conditions: NEW KINOMEscan
[6] = target: kinases (KINOMEscan panel) (Homo sapiens, UniProt P37023); conditions: ACVRL1; NEW KINOMEscan
Chain of kinases (KINOMEscan panel) (Homo sapiens, UniProt P37023) (P37023 22-503): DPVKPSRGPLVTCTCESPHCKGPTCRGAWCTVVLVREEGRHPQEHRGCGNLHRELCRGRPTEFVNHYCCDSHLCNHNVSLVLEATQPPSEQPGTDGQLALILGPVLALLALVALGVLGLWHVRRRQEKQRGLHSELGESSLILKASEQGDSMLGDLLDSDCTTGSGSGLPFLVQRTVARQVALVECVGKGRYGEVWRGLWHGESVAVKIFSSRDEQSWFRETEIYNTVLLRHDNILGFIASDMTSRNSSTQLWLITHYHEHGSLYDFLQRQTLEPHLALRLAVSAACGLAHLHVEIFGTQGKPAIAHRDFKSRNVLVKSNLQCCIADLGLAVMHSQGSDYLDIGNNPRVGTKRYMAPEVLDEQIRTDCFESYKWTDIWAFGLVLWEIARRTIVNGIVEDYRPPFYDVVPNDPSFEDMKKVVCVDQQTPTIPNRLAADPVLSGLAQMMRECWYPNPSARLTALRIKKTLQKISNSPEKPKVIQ

[7] = target: kinases (KINOMEscan panel) (Homo sapiens, UniProt P42336, E545K); conditions: NEW KINOMEscan
Chain of kinases (KINOMEscan panel) (Homo sapiens, UniProt P42336, E545K) (P42336 whole entry E545K): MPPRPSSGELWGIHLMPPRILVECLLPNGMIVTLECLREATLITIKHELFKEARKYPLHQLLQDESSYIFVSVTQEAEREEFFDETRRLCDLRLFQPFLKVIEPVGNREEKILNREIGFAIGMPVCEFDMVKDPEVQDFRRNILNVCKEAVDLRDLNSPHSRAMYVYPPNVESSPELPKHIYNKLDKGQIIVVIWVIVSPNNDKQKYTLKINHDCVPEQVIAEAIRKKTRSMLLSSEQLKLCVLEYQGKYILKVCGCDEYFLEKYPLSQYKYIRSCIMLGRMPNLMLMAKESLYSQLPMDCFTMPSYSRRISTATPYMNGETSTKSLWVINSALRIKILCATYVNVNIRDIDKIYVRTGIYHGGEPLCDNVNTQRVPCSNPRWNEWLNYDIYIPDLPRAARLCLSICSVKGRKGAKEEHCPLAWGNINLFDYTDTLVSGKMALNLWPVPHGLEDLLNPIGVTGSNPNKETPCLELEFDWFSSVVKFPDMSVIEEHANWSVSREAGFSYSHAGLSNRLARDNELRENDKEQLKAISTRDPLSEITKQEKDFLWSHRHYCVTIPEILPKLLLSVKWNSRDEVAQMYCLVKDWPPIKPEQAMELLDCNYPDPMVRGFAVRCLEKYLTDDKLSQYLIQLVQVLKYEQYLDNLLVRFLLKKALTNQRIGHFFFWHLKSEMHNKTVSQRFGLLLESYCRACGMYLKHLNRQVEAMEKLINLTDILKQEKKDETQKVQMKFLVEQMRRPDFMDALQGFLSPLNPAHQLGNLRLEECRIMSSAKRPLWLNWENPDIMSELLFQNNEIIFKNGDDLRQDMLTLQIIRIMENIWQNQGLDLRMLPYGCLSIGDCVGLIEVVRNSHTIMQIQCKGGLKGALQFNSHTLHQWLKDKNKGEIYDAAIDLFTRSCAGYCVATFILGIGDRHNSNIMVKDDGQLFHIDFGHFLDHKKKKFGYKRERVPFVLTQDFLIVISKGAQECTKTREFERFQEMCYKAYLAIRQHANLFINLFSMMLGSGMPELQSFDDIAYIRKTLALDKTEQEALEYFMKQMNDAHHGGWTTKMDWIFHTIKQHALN

[8] = target: T2, kinases (KINOMEscan panel) (Homo sapiens, UniProt P57058); conditions: kinase HUNK; NEW KINOMEscan
T2 sequence (P57058 1-714): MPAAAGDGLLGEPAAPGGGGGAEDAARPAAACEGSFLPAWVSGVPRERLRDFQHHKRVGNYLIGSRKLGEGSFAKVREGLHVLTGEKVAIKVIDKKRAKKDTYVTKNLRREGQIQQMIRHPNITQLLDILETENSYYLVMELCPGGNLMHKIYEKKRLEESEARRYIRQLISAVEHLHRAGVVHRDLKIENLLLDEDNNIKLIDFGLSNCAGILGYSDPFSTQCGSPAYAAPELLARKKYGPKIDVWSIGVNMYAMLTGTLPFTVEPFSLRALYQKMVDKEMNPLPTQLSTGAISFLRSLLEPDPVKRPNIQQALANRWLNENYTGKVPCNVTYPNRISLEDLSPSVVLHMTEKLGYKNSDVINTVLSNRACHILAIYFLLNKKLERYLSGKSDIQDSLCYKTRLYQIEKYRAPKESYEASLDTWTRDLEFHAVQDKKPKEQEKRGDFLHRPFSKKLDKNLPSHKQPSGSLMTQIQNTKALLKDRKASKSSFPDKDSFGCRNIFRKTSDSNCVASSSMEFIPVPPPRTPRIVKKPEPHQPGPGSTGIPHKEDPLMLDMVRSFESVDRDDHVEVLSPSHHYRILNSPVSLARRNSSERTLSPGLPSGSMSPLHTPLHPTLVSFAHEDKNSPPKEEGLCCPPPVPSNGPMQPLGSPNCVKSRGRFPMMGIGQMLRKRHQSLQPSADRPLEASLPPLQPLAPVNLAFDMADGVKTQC

[9] = target: kinases (KINOMEscan panel) (Homo sapiens, UniProt Q04759); conditions: kinase PRKCQ; NEW KINOMEscan
Chain of kinases (KINOMEscan panel) (Homo sapiens, UniProt Q04759) (Q04759 whole entry): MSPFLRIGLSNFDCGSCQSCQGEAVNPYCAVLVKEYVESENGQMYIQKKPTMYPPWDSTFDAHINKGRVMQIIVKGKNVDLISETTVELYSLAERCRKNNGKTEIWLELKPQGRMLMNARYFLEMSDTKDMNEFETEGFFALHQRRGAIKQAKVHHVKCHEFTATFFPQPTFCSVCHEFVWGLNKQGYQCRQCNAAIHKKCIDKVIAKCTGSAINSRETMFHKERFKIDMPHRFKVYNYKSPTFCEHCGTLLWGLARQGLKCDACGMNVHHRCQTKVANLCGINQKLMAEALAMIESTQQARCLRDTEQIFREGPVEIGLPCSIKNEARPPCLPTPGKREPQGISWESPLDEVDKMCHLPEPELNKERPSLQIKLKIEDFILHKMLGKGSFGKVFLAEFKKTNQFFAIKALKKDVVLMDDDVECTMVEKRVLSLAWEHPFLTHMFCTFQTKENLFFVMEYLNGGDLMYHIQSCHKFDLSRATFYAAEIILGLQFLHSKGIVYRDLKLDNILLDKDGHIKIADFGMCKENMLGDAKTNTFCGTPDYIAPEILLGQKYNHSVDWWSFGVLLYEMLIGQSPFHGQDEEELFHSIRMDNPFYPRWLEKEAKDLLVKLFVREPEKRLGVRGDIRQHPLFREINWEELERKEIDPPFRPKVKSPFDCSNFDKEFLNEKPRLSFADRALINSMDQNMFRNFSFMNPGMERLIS

[10] = target: kinases (KINOMEscan panel) (Homo sapiens, UniProt Q8N5S9); conditions: CAMKK1; NEW KINOMEscan
[11] = target: kinases (KINOMEscan panel) (Homo sapiens, UniProt Q9HC98); conditions: kinase NEK6; NEW KINOMEscan
[12] = target: kinases (KINOMEscan panel) (Homo sapiens, UniProt Q9HCP0); conditions: kinase CSNK1G1; NEW KINOMEscan
[13] = target: kinases (KINOMEscan panel) (Homo sapiens, UniProt Q9Y3S1); conditions: WNK2; NEW KINOMEscan
Chain of kinases (KINOMEscan panel) (Homo sapiens, UniProt Q9Y3S1) (Q9Y3S1 whole entry): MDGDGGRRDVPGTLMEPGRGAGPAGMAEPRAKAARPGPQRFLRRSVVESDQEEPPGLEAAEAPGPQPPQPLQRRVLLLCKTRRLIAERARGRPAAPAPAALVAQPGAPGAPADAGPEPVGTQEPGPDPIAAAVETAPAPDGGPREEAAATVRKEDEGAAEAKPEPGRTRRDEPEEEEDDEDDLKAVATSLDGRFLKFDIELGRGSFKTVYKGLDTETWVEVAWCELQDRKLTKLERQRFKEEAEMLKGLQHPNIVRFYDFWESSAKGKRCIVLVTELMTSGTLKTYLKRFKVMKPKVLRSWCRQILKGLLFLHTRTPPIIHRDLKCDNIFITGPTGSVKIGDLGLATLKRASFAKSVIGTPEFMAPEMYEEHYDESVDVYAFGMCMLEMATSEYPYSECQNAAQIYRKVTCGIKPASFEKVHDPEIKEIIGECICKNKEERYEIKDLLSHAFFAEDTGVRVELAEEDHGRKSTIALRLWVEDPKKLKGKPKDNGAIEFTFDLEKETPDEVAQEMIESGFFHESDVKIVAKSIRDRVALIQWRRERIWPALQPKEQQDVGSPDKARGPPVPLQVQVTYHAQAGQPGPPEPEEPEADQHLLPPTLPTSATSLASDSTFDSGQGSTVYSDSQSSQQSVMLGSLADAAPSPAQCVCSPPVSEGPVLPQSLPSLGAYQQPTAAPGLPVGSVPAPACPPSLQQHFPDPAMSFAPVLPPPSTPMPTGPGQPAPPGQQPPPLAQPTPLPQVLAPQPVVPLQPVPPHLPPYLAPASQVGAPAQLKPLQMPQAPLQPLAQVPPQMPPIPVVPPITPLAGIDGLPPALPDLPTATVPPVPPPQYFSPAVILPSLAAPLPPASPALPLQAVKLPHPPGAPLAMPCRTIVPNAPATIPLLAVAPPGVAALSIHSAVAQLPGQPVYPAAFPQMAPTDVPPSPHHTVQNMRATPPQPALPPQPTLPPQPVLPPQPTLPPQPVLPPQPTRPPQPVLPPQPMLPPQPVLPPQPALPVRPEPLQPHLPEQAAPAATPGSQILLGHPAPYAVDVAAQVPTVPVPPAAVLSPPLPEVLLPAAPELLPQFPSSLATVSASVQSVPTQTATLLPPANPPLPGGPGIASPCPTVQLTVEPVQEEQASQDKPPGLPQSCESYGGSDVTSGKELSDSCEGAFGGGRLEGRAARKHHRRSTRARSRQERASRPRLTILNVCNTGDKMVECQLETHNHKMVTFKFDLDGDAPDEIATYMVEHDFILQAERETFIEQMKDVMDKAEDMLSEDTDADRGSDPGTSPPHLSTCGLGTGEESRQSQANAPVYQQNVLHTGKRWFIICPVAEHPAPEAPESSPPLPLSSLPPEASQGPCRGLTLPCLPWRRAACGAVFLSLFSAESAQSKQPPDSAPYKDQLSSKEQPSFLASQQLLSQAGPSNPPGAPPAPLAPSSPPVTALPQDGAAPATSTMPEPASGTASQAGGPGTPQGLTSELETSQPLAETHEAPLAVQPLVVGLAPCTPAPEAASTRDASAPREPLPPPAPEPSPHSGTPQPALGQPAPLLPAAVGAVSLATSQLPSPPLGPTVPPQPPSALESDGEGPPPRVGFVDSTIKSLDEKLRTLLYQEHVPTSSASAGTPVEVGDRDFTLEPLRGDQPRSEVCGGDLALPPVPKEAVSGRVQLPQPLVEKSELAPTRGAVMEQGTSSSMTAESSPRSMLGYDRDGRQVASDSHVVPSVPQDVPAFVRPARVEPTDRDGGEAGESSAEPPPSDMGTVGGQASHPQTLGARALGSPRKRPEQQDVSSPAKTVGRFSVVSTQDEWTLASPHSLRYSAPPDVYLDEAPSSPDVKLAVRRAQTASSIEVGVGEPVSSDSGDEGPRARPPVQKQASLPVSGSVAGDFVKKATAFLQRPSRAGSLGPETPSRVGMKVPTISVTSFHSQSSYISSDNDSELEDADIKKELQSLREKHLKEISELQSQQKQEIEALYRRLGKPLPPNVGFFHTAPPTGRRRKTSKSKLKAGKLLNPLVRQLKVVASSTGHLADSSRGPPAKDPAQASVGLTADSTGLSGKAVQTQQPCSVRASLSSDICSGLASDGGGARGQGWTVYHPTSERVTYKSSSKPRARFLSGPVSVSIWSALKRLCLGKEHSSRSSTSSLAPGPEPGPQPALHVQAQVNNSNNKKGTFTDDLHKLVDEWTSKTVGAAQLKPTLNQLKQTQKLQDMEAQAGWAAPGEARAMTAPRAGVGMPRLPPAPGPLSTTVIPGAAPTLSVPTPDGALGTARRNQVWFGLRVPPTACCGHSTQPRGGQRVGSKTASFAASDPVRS

[14] = target: kinases (KINOMEscan panel) (Plasmodium falciparum, UniProt P62344); conditions: PFCDPK1(P.falciparum); NEW KINOMEscan

Structure (SMILES) | KINOMEscan SGK1 [1] | KINOMEscan FYN [2] | KINOMEscan ROS1 [3] | KINOMEscan FGFR3(G697C) [4] | KINOMEscan AKT2 [5] | KINOMEscan ACVRL1 [6] | KINOMEscan PIK3CA(E545K) [7] | KINOMEscan HUNK [8] | KINOMEscan PRKCQ [9] | KINOMEscan CAMKK1 [10] | KINOMEscan NEK6 [11] | KINOMEscan CSNK1G1 [12] | KINOMEscan WNK2 [13] | KINOMEscan PFCDPK1(P.falciparum) [14]
Cc1cccc(-c2nc(N(C)c3ccc4ncsc4c3)c3ccccc3n2)n1 [NK-161] | 14 | 0 | 0 | 0 | 19 | 9 | 40 | 4 | 7 | 9 | 6 | 0 | 0 | 0
Cc1cccc(-c2nc(Nc3ccc4nn(C)cc4c3)c3ccccc3n2)n1 [NK167] | 0 | 0 | 0 | 6 | 28 | 4 | 67 | 0 | 0 | 0 | 0 | 0 | 0 | 0
